Results taken from patent publication US20230257396A1, “MACROCYCLES AND THEIR USE” (BLOSSOMHILL THERAPEUTICS, INC., priority 2020, published 2023).

Experiments:
Assay in all cases: KINOMEscan kinase binding assay (Eurofins/DiscoveRx), % Ctrl
kinases [1] = molecular target: T1, kinases (Homo sapiens, UniProt P00533, T790M); details: 1 μM; target EGFR(T790M)
T1 construct: purchased Eurofins/DiscoveRx; host or cells: E. coli BL21-derived host (T7 phage display) for most kinases; HEK-293 for the rest
Summary of the method: (§1)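 Competition binding, 1 h RT: phage-tagged or HEK-293-expressed DNA-tagged kinase + immobilized ligand + compound. Eluate kinase by qPCR. % Ctrl = (test − positive ctrl)/(negative ctrl − positive ctrl) × 100; lower means stronger binding.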

kinases [2] = molecular target: T2, kinases (Homo sapiens, UniProt P00533, L861Q); details: 1 μM; target EGFR(L861Q)
T2 construct: purchased Eurofins/DiscoveRx; host or cells: E. coli BL21-derived host (T7 phage display) for most kinases; HEK-293 for the rest
Summary of the method: as §1

kinases [3] = molecular target: T3, kinases (Homo sapiens, UniProt P36888, D835V); details: 1 μM; target FLT3(D835V)
T3 construct: purchased Eurofins/DiscoveRx; host or cells: E. coli BL21-derived host (T7 phage display) for most kinases; HEK-293 for the rest
T3 sequence (P36888 27-993 D835V): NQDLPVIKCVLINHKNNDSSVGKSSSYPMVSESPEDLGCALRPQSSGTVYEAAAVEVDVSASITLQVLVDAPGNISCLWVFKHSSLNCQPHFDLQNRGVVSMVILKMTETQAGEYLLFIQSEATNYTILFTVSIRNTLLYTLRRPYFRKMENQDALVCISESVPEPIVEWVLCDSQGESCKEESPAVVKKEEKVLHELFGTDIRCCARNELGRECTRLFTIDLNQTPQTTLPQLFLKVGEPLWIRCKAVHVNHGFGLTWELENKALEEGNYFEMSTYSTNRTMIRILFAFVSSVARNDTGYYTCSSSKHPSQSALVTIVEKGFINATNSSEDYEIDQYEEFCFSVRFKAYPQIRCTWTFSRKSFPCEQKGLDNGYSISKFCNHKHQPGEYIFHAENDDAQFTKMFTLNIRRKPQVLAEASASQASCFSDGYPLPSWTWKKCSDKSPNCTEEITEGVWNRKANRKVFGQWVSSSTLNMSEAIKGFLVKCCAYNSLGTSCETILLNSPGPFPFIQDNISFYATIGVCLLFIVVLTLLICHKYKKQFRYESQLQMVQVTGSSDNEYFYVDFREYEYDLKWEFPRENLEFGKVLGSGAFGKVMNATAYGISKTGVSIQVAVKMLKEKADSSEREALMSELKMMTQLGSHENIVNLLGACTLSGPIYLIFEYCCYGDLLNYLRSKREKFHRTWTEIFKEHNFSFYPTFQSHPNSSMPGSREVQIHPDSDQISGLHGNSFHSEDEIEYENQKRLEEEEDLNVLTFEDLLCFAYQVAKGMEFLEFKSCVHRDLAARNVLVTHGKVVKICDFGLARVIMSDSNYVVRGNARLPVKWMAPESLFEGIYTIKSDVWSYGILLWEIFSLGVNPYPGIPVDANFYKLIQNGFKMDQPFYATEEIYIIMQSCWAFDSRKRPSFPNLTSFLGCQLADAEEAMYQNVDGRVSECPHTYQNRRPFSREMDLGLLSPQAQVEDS
Summary of the method: as §1

kinases [4] = molecular target: T4, kinases (Homo sapiens, UniProt P42684); details: 1 μM; target ABL2
T4 construct: purchased Eurofins/DiscoveRx; host or cells: E. coli BL21-derived host (T7 phage display) for most kinases; HEK-293 for the rest
Summary of the method: as §1

kinases [5] = molecular target: T5, kinases (Homo sapiens, UniProt P10721, L576P); details: 1 μM; target KIT(L576P)
T5 construct: purchased Eurofins/DiscoveRx; host or cells: E. coli BL21-derived host (T7 phage display) for most kinases; HEK-293 for the rest
Summary of the method: as §1

kinases [6] = molecular target: T6, kinases (Homo sapiens, UniProt P00519, M351T); details: 1 μM; target ABL1(M351T)-phosphorylated
T6 construct: purchased Eurofins/DiscoveRx; host or cells: E. coli BL21-derived host (T7 phage display) for most kinases; HEK-293 for the rest
Summary of the method: as §1

kinases [7] = molecular target: T7, kinases (Homo sapiens, UniProt P10721, D816H); details: 1 μM; target KIT(D816H)
T7 construct: purchased Eurofins/DiscoveRx; host or cells: E. coli BL21-derived host (T7 phage display) for most kinases; HEK-293 for the rest
Summary of the method: as §1

kinases [8] = molecular target: T8, kinases (Homo sapiens, UniProt P00519, E255K); details: 1 μM; target ABL1(E255K)-phosphorylated
T8 construct: purchased Eurofins/DiscoveRx; host or cells: E. coli BL21-derived host (T7 phage display) for most kinases; HEK-293 for the rest
Summary of the method: as §1

kinases [9] = molecular target: T9, kinases (Homo sapiens, UniProt P00533, G719S); details: 1 μM; target EGFR(G719S)
T9 construct: purchased Eurofins/DiscoveRx; host or cells: E. coli BL21-derived host (T7 phage display) for most kinases; HEK-293 for the rest
Summary of the method: as §1

kinases [10] = molecular target: T10, kinases (Homo sapiens, UniProt P00519, Q252H); details: 1 μM; for % Ctrl, ABL1(Q252H)-nonphosphorylated: target ABL1(Q252H)-nonphosphorylated; for % Ctrl, ABL1(Q252H)-phosphorylated: target ABL1(Q252H)-phosphorylated
T10 construct: purchased Eurofins/DiscoveRx; host or cells: E. coli BL21-derived host (T7 phage display) for most kinases; HEK-293 for the rest
Summary of the method: as §1

kinases [11] = molecular target: T11, kinases (Homo sapiens, UniProt P00519, H396P); details: 1 μM; for % Ctrl, ABL1(H396P)-nonphosphorylated: target ABL1(H396P)-nonphosphorylated; for % Ctrl, ABL1(H396P)-phosphorylated: target ABL1(H396P)-phosphorylated
T11 construct: purchased Eurofins/DiscoveRx; host or cells: E. coli BL21-derived host (T7 phage display) for most kinases; HEK-293 for the rest
Summary of the method: as §1

kinases [12] = molecular target: T12, kinases (Homo sapiens, UniProt P00533); details: 1 μM; target EGFR
T12 construct: purchased Eurofins/DiscoveRx; host or cells: E. coli BL21-derived host (T7 phage display) for most kinases; HEK-293 for the rest
Summary of the method: as §1

kinases [13] = molecular target: T13, kinases (Homo sapiens, UniProt P07949, V804L); details: 1 μM; target RET(V804L)
T13 construct: purchased Eurofins/DiscoveRx; host or cells: E. coli BL21-derived host (T7 phage display) for most kinases; HEK-293 for the rest
Summary of the method: as §1

kinases [14] = molecular target: T14, kinases (Homo sapiens, UniProt P07949); details: 1 μM; target RET
T14 construct: purchased Eurofins/DiscoveRx; host or cells: E. coli BL21-derived host (T7 phage display) for most kinases; HEK-293 for the rest
Summary of the method: as §1

kinases [15] = molecular target: T15, kinases (Homo sapiens, UniProt P00519, Y253F); details: 1 μM; target ABL1(Y253F)-phosphorylated
T15 construct: purchased Eurofins/DiscoveRx; host or cells: E. coli BL21-derived host (T7 phage display) for most kinases; HEK-293 for the rest
Summary of the method: as §1

T13 sequence (P07949 29-1114 V804L): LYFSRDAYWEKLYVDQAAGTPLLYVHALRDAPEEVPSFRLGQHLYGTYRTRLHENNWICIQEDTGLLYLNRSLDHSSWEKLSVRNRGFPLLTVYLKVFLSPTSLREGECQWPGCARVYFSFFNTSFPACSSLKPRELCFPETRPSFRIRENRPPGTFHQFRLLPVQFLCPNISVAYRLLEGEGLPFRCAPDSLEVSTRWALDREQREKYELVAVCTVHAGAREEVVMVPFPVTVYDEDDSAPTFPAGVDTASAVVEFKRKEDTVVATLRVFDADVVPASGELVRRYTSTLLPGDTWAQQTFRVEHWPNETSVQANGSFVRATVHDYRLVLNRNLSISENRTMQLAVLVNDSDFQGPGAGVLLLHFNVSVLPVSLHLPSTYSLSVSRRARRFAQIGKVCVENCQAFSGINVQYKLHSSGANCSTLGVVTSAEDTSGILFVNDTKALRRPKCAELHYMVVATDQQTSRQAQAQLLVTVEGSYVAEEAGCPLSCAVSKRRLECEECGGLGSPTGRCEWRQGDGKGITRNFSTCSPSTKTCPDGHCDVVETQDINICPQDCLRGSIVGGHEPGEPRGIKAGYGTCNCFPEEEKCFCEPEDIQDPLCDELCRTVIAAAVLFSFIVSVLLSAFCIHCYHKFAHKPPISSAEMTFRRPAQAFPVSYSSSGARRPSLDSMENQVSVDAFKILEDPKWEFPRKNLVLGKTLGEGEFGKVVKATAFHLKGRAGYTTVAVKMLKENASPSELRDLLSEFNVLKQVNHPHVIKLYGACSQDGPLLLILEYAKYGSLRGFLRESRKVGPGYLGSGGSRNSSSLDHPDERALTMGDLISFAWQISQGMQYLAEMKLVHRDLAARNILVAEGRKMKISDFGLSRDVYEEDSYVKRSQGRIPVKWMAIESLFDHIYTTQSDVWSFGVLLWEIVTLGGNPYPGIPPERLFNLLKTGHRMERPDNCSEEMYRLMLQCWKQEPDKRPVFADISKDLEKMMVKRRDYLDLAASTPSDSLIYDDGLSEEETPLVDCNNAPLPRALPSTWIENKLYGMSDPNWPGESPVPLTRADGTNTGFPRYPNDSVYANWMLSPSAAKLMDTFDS
T7 sequence (P10721 26-976 D816H): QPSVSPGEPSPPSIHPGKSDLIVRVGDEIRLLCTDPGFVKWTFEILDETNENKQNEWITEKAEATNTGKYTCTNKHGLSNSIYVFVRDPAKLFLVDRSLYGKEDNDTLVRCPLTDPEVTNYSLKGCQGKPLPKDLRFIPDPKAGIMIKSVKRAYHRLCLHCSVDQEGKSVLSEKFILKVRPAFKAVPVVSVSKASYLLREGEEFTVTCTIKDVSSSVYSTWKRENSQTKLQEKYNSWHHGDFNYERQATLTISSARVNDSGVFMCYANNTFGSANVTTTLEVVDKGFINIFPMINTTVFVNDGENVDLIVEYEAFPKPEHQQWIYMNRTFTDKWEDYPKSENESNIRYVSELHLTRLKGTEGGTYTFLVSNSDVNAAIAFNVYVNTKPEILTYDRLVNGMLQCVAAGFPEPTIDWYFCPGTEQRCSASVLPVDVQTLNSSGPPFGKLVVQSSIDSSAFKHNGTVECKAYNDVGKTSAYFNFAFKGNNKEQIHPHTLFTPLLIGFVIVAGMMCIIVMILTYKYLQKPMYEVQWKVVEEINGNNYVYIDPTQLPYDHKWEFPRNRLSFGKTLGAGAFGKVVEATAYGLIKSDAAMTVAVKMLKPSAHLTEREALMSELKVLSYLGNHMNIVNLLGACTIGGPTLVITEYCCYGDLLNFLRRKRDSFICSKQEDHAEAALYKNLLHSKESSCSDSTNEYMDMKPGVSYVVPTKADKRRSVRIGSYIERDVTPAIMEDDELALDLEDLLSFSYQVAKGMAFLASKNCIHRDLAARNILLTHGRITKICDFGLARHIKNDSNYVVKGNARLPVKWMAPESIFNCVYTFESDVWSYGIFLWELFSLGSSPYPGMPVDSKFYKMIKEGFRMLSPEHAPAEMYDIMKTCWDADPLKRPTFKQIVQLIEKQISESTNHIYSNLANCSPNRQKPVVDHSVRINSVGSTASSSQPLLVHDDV
T4 sequence (P42684 whole entry): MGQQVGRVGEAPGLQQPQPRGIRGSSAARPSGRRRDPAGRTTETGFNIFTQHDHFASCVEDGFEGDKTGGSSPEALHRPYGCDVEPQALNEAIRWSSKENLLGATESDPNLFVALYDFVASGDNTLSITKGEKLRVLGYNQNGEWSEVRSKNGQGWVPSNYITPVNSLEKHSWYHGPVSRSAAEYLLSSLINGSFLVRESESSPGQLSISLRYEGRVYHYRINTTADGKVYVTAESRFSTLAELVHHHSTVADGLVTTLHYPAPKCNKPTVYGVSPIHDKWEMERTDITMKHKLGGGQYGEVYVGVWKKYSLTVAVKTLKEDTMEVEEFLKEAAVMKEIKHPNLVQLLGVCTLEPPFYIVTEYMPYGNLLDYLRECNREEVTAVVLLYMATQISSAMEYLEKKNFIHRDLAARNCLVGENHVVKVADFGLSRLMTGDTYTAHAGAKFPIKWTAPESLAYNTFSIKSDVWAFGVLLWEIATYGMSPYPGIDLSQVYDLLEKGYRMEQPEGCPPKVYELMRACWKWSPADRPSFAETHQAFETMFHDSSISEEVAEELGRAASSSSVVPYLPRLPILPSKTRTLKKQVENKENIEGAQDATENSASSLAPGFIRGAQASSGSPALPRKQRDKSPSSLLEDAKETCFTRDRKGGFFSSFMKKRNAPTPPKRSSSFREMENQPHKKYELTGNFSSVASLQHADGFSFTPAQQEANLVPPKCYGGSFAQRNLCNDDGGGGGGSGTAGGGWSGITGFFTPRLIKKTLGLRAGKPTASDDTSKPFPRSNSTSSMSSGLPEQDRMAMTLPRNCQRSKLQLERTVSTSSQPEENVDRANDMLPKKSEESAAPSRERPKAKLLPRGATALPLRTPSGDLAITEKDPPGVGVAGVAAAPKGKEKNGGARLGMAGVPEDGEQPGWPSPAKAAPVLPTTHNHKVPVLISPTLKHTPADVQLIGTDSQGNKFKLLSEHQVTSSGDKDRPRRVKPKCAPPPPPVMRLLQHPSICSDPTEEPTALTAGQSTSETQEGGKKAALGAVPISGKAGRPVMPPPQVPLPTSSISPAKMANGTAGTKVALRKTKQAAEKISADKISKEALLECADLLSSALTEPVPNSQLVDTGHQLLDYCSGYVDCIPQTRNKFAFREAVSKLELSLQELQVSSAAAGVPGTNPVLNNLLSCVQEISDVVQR
T5 sequence (P10721 26-976 L576P): as the sequence (P10721 26-976 D816H) above, with L551P, H791D counted along it
T14 sequence (P07949 29-1114): as the sequence (P07949 29-1114 V804L) above, with L776V counted along it

Compound	% Ctrl, EGFR(T790M) (kinases [1])	% Ctrl, EGFR(L861Q) (kinases [2])	% Ctrl, FLT3(D835V) (kinases [3])	% Ctrl, ABL2 (kinases [4])	% Ctrl, KIT(L576P) (kinases [5])	% Ctrl, ABL1(M351T)-phosphorylated (kinases [6])	% Ctrl, KIT(D816H) (kinases [7])	% Ctrl, ABL1(E255K)-phosphorylated (kinases [8])	% Ctrl, EGFR(G719S) (kinases [9])	% Ctrl, ABL1(Q252H)-nonphosphorylated (kinases [10])	% Ctrl, ABL1(Q252H)-phosphorylated (kinases [10])	% Ctrl, ABL1(H396P)-nonphosphorylated (kinases [11])	% Ctrl, ABL1(H396P)-phosphorylated (kinases [11])	% Ctrl, EGFR (kinases [12])	% Ctrl, RET(V804L) (kinases [13])	% Ctrl, RET (kinases [14])	% Ctrl, ABL1(Y253F)-phosphorylated (kinases [15])
CN1CCOc2cc3c(cc2Cl)NC(=O)/C3=C\c2[nH]ccc2C(=O)N(C)CC1 [Ex. 164, [16a(17)Z]-19-chloro-2,5,8-trimethyl-5,6,7,8,9,10-hexahydro-12,14-(ethanediylidene)dipyrrolo[3,2-i:3′,4′-l][1,4,7]oxadiazacyclopentadecine-4,16(1H,15H)-dione]	97 % Ctrl	63 % Ctrl	1.1 % Ctrl	2.3 % Ctrl	0.9 % Ctrl	0.3 % Ctrl	22 % Ctrl	0.1 % Ctrl	74 % Ctrl	0.1 % Ctrl	0 % Ctrl	0 % Ctrl	0 % Ctrl	95 % Ctrl	1.2 % Ctrl	0 % Ctrl	0.1 % Ctrl
Cc1cc2c([nH]1)/C=C1\C(=O)Nc3cnc(cc31)-c1cnn(C)c1CN(C)CCN(C)C2=O [Ex. 172, [3a(4)Z]-6,9,12,14-tetramethyl-9,10,11,12,13,14-hexahydro-17,1-(azenometheno)pyrazolo[4,3-m]dipyrrolo[3,2-f:3′,4′-i][1,4]diazacyclopentadecine-3,8(2H,5H)-dione]	22 % Ctrl	75 % Ctrl	0.5 % Ctrl	4.2 % Ctrl	16 % Ctrl	0.4 % Ctrl	6.4 % Ctrl	0.4 % Ctrl	82 % Ctrl	0.3 % Ctrl	0.1 % Ctrl	0 % Ctrl	0.1 % Ctrl	36 % Ctrl	0.5 % Ctrl	3.1 % Ctrl	0.2 % Ctrl
Cc1cc2c([nH]1)/C=C1\C(=O)Nc3cc(Cl)c(cc31)SCCOCCN(C)C2=O [Ex. 169, [16a(17)Z]-19-chloro-5-methyl-6,7,9,10-tetrahydro-1H-12,14-(ethanediylidene)dipyrrolo[3,4-g:2′,3′-j][1,4,13]oxathiazacyclopentadecine-4,16(5H,15H)-dione]	69 % Ctrl	77 % Ctrl	0 % Ctrl	0.3 % Ctrl	0 % Ctrl	0.1 % Ctrl	8.3 % Ctrl	0.3 % Ctrl	88 % Ctrl	0 % Ctrl	0.3 % Ctrl	0 % Ctrl	0 % Ctrl	42 % Ctrl	0.2 % Ctrl	0 % Ctrl	0.1 % Ctrl
